#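 Five compound concentrations were applied to cells in 96-well plates for 48 hours; endpoints were derived by simple linear interpolation of the resulting dose-response curve. Here, GI50 denotes the concentration required for 50% inhibition of growth. TGI denotes the concentration required for complete inhibition of growth.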
# What was measured:
# Experiment in all cases: NCI-60 cell line screen, 48 h
# [1] = tested on: NCI-H23 lung
# [2] = tested on: NCI-H460 lung
# [3] = tested on: NCI-H522 lung
# [4] = tested on: NCI/ADR-RES ovarian
# [5] = tested on: OVCAR-3 ovarian
# [6] = tested on: OVCAR-4 ovarian
# [7] = tested on: OVCAR-5 ovarian
# [8] = tested on: OVCAR-8 ovarian
# [9] = tested on: PC-3 prostate
# [10] = tested on: RPMI-8226 leukemia
# [11] = tested on: RXF 393 renal
# [12] = tested on: SF-268 CNS
# [13] = tested on: SF-295 CNS
# [14] = tested on: SF-539 CNS
# [15] = tested on: SK-MEL-2 melanoma
# [16] = tested on: SK-MEL-28 melanoma
# [17] = tested on: SK-MEL-5 melanoma
# [18] = tested on: SK-OV-3 ovarian
# [19] = tested on: SN12C renal
# [20] = tested on: SNB-19 CNS
# [21] = tested on: SNB-75 CNS
# [22] = tested on: SR leukemia
# [23] = tested on: SW-620 colon
# [24] = tested on: T-47D breast
# [25] = tested on: TK-10 renal
# [26] = tested on: U251 CNS
# [27] = tested on: UACC-257 melanoma
# [28] = tested on: UACC-62 melanoma
# [29] = tested on: UO-31 renal
smiles,measurement,setting,value
O=C(CCCCCCCCC(=O)N/N=C\c1ccccc1O)N/N=C\c1ccccc1O,GI50,[1],750 nM
same,TGI,[1],21900 nM
same,GI50,[2],270 nM
same,TGI,[2],1470 nM
same,GI50,[3],257 nM
same,TGI,[3],> 100000 nM
same,GI50,[4],514 nM
same,TGI,[4],25400 nM
same,GI50,[5],343 nM
same,TGI,[5],> 51200 nM
same,GI50,[6],330 nM
same,TGI,[6],> 100000 nM
same,GI50,[7],3350 nM
same,TGI,[7],> 90300 nM
same,GI50,[8],349 nM
same,TGI,[8],5800 nM
same,GI50,[9],855 nM
same,TGI,[9],> 58600 nM
same,GI50,[10],1030 nM
same,TGI,[10],35800 nM
same,GI50,[11],353 nM
same,TGI,[11],2950 nM
same,GI50,[12],342 nM
same,TGI,[12],9720 nM
same,GI50,[13],1070 nM
same,TGI,[13],31700 nM
same,GI50,[14],452 nM
same,TGI,[14],17400 nM
same,GI50,[15],469 nM
same,TGI,[15],> 36800 nM
same,GI50,[16],1080 nM
same,TGI,[16],> 100000 nM
same,GI50,[17],231 nM
same,TGI,[17],1120 nM
same,GI50,[18],899 nM
same,TGI,[18],15600 nM
same,GI50,[19],700 nM
same,TGI,[19],> 42400 nM
same,GI50,[20],763 nM
same,TGI,[20],> 59400 nM
same,GI50,[21],1820 nM
same,TGI,[21],15300 nM
same,GI50,[22],160 nM
same,TGI,[22],12900 nM
same,GI50,[23],1280 nM
same,TGI,[23],24100 nM
same,GI50,[24],2890 nM
same,TGI,[24],> 49400 nM
same,GI50,[25],1870 nM
same,TGI,[25],> 46700 nM
same,GI50,[26],308 nM
same,TGI,[26],9140 nM
same,GI50,[27],368 nM
same,TGI,[27],4070 nM
same,GI50,[28],331 nM
same,TGI,[28],5540 nM
same,GI50,[29],197 nM
same,TGI,[29],3900 nM

# Reference: PubChem BioAssay (NCI)
